Reference: patent US20130253048A1, “Pharmaceutical Composition for Promoting Osteogenesis Containing Axial-equatorial Aryl-oriented Furofuran-type Lignan, and Pharmaceutical Preparation, Functional Food Product, and Health Food Product Comprising Composition” (ERINA CO., INC., priority 2010, published 2013)
Marks after values point to notes of the source that are not given here.

Key:
[1] = system: metatarsals of mouse fetus; assay: Organ culture of mouse fetus metatarsals, calcein staining; format: cell-based; conditions: 0.3 μM, 7 days organ culture, versus 0.3% DMSO negative control
Description: Eagle's minimum essential mediums (MEM, Life Technologies Japan Corporation (Invitrogen)) was used to prepare the organ culture medium by adding 1% of penicillin/streptomycin (Life Technologies Japan Corporation (GIBCO)), 0.25% of fetal bovine serum (Sigma-Aldrich Co. LLC.), 50 μg/ml of ascorbic acid (Wako Pure Chemical Industries, Ltd.), 1 mM of β-glycerophosphoric acid (Sigma-Aldrich Co. LLC.), and 1 μg/ml of calcein (Sigma-Aldrich Co. LLC.). As a test substance, 0.3 μM of fargesin, or as a control, 0.3% of DMSO (final cone., Wako Pure Chemical Industries, Ltd.) was added to the organ culture medium. Fargesin was used the same solution prepared in Example 1 containing 0.3% DMSO as the final concentration.
On 15 of pregnancy, mouse fetuses were took from pregnant female ICR mice (Japan SLC, Inc.) by Caesarean operation (E15.5) from the 15th days of a pregnant ICR female mouse by Caesarean section. Left and right metatarsals of the fetus were excised to be placed into the organ culture medium. The organ culture was performed under the conditions of 5% CO2 at 37 degree centigrade for 7 days to observe the effect on long axis direction.
The long axis of the bone grows depending on that of epiphyseal cartilage existing between an epiphysis and a shaft. […] Then, calcification was occurred from the occification center (ossification). […]

[2] = system: osteopenia mouse caused by sRANKL administration; assay: Osteopenia mouse caused by sRANKL administration, femur pQCT; format: in vivo; conditions: for Bone density of the cancellous bone, relative value / Bone density of the cortical bone, relative value / Bone density of whole bone, relative value: RANKL group = 100.0; for Bone density of the cancellous bone / Bone density of the cortical bone / Bone density of whole bone: day 4 to 13; for Bone density of whole bone: right femur, pQCT
Description: C57BL/6NCrlCrlj mice (6-week-age, female) were purchased from Oriental Yeast Co., Ltd. and kept to be acclimatized under the conditions of 12 hour light/dark cycle, 23±3 degree centigrade, and humidity 55±5% for 7 days. Two mice were in a cage, and the animal bedding was changed twice a week, and all fresh animal bedding was used at all times. As the feed, CRF-1 (Oriental Yeast Co., Ltd.), and deionized water as the drinking water were freely taken.
After the acclimatization, these mice were randomly divided into 4 groups (8 mice per group), sRANKL administration group and fargesin administration groups. Fargesin administration groups had 0.2 mg/kg/day administration group (it is referred to as “Far 0.2”, hereinbelow), 2 mg/kg/day administration group (it is referred to as “Far 2” herein below), and 20 mg/kg/day administration group (it is referred to as “Far 20” herein below). sRANKL (1 mg/kg/day, i.p) was administered to all mice on the first day and the second day from test start to cause osteopenia experimentally.
From the 4th day to 13th day after the test start, distilled water or the test compounds shown in the following Table 10 were daily administered to the mice in each group.
After the administration period was finished and the experiment was completed, the femurs were removed in the same way as employed in Example 6 to be excised to evaluate the bone density. Body weight of the test animals and feed intake by the test animals were measured twice a week during the administration period.
The experiments were performed as the same as done in Example 6, right femur chosen from the obtained femurs was used for measurement of the bone density.
The whole bone density, the cancellous bone density, the cortical bone density, the boundary length of the cortical bone adventitia, the length of the cortical bone endosteum, and the bone strength were measured at the site of −0.6 mm from the growth plate of the bone (see FIG. 3A).

[3] = sRANKL-treated mice, Far 0.2: 0.2 mg/kg/day p.o.
[4] = sRANKL-treated mice, Far 2: 2 mg/kg/day p.o.
[5] = sRANKL-treated mice, Far 20: 20 mg/kg/day p.o.

COc1ccc([C@@H]2OC[C@H]3[C@@H]2CO[C@@H]3c2ccc3c(c2)OCO3)cc1OC [fargesin, Fargesin]
extension of the metatarsal in long axis direction (calcified area, calcein fluorescence) [1]: extended longer vertically | Bone density of the cancellous bone, relative value ([2]; Far 0.2: 0.2 mg/kg/day p.o.): (100.7) | Bone density of the cortical bone, relative value ([2]; Far 0.2: 0.2 mg/kg/day p.o.): (98.7) | Bone density of whole bone, relative value ([2]; Far 0.2: 0.2 mg/kg/day p.o.): 99.5 | Bone density of the cancellous bone, relative value ([2]; Far 2: 2 mg/kg/day p.o.): (104.0) | Bone density of the cortical bone, relative value ([2]; Far 2: 2 mg/kg/day p.o.): (98.9) | Bone density of whole bone, relative value ([2]; Far 2: 2 mg/kg/day p.o.): 99.5 | Bone density of the cancellous bone, relative value ([2]; Far 20: 20 mg/kg/day p.o.): (129.4)* | Bone density of the cortical bone, relative value ([2]; Far 20: 20 mg/kg/day p.o.): (98.6) | Bone density of whole bone, relative value ([2]; Far 20: 20 mg/kg/day p.o.): 110 | bone strength, Polar coordinates strength (SSI) ([2]; sRANKL-treated mice, 0.2 to 20 mg/kg/day p.o.): trend that the bone strength was improved | Bone density of the cancellous bone [2, 3]: 261.64 ± 17.92 mg/mL | Bone density of the cortical bone [2, 3]: 797.40 ± 6.12 mg/mL | Bone density of whole bone [2, 3]: 484.33 ± 11.09 mg/mL | Bone density of the cancellous bone [2, 4]: 270.30 ± 20.64 mg/mL | Bone density of the cortical bone [2, 4]: 798.60 ± 4.56 mg/mL | Bone density of whole bone [2, 4]: 487.30 ± 16.36 mg/mL | Bone density of the cancellous bone [2, 5]: 336.25 ± 13.50 mg/mL | Bone density of the cortical bone [2, 5]: 796.33 ± 3.89 mg/mL | Bone density of whole bone [2, 5]: 532.69 ± 8.06 mg/mL
